Earlier results, collected in patent US20170245495A1, “CHEMICAL LURE FOR ASIAN CITRUS PSYLLID” (The Regents of the University of California, priority 2014, published 2017).
Where two headings read alike, the source gives them in different places.

Tested on: D. citri
Details: Mann et al. 2012, Patt and Setamou 2010

| Compound | attraction of D. citri (literature) | attraction of D. citri (literature) (listed as MeSA) |
| --- | --- | --- |
| COC(=O)c1ccccc1O [methyl salicylate] | implicated as D. citri attractants | attractant for D. citri |
| C=CC(C)(O)CCC=C(C)C (stereo not shown) [linalool] | attractive to D. citri | – |
| C=C/C(C)=C/CC=C(C)C [β-ocimene, (E)-β-ocimene] | attractive to D. citri | – |
